Read-outs that look alike come from different tables or passages of the source.
Legend:
[1] = test system: ECFC/ADSC co-culture cell nuclei number
[2] = test system: DLD-1; assay: cells; type: cell-based
[3] = test system: HCT116; assay: cells; type: cell-based
[4] = test system: HCT116 cells treated with a GSK3β inhibitor; assay: cells; type: cell-based
[5] = test system: HT-29; assay: cells; type: cell-based
[6] = test system: Colo320; assay: cells; type: cell-based
[7] = test system: HeLa cells; assay: cells; type: cell-based;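 for Hela CellCycMod PI 4N summarized IC50: value tracks stimulation of 4N DNA content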
[8] = test system: RKO; assay: cells; type: cell-based
[9] = test system: SNU-C1; assay: cells; type: cell-based
[10] = test system: SW480; assay: cells; type: cell-based
[11] = test system: endothelial tube formation in co-cultures of ECFCs and ADSCs treated with VEGF; assay: cells; type: cell-based, human
[12] = test system: INS-1E cells; assay: cells; type: cell-based, rat;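 note: secreted insulin quantified by homogeneous immunoassay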

## O=C1C(I)=CC(=C(c2cc(I)c(O)c(I)c2)c2ccccc2C(=O)O)C=C1I [NCGC00161636-02]
[1]; read-out: VEGF_ADSC\ECFC Angio Hoechst NucArea summarized IC50
  IC50: > 10 µM
[2]; read-out: Basal_Viability ATP DLD-1 summarized IC50
  IC50: 0.0132 µM
[3]; read-out: Basal_Viability ATP HCT116 summarized IC50
  IC50: 0.384 µM
[4]; read-out: GSK3b inh pretreated_Viability ATP HCT116 summarized IC50
  IC50: 0.054 µM
[5]; read-out: Basal_Viability ATP HT-29 summarized IC50
  IC50: 5.73 µM
[6]; read-out: Basal_Viability ATP Colo 320 summarized IC50
  IC50: 0.312 µM
[7]; read-out: Hela CellCycMod PI 2N summarized IC50
  IC50: > 10 µM
[7]; read-out: Hela CellCycMod PI 4N summarized IC50
  IC50: > 10 µM
[7]; read-out: Hela CellCycMod PI Cell Number summarized IC50
  IC50: > 10 µM
[7]; read-out: Hela CellCycMod PI MI summarized IC50
  IC50: > 10 µM
[7]; read-out: Hela CellCycMod PI S Phase summarized IC50
  IC50: > 10 µM
[8]; read-out: Basal_Viability ATP RKO summarized IC50
  IC50: 0.0373 µM
[9]; read-out: Basal_Viability ATP SNU-C1 summarized IC50
  IC50: 3.76 µM
[10]; read-out: Basal_Viability ATP SW480 summarized IC50
  IC50: 0.112 µM
[11]; read-out: VEGF_ADSC\ECFC Angio CD31 TubeArea summarized IC50
  IC50: > 10 µM

## CCCCN(CCCC)C(C(N)=O)c1ccc(OC)cc1 (stereo not drawn) [NCGC00261978-01]
[12]; assay number 8, 5 mM glucose
  5mMGluc_INS1E SecretionMod IC50/EC50: > 33.33 µM

## CC(C)=CCOc1ccc(/C=C/C(=O)c2ccc(OCC=C(C)C)cc2OCC(=O)O)cc1 [NCGC00159481-03]
[1]
  VEGF_ADSC\ECFC Angio Hoechst NucArea IC50/EC50: > 10 µM
[2]
  Basal_Viability ATP DLD-1 IC50/EC50: 5.3614 µM
[3]
  Basal_Viability ATP HCT116 IC50/EC50: > 6.667 µM
[4]
  GSK3b inh pretreated_Viability ATP HCT116 IC50/EC50: 3.0351 µM
[5]
  Basal_Viability ATP HT-29 IC50/EC50: 5.3973 µM
[6]
  Basal_Viability ATP Colo 320 IC50/EC50: 1.5527 µM
[7]
  Hela CellCycMod PI 2N IC50/EC50: > 10 µM
  Hela CellCycMod PI 4N IC50/EC50: > 10 µM
  Hela CellCycMod PI Cell Number IC50/EC50: > 10 µM
  Hela CellCycMod PI MI IC50/EC50: > 10 µM
  Hela CellCycMod PI S Phase IC50/EC50: > 10 µM
[8]
  Basal_Viability ATP RKO IC50/EC50: 5.5335 µM
[9]
  Basal_Viability ATP SNU-C1 IC50/EC50: 7.4428 µM
[10]
  Basal_Viability ATP SW480 IC50/EC50: 2.9193 µM
[11]
  VEGF_ADSC\ECFC Angio CD31 TubeArea IC50/EC50: > 10 µM

## CCc1oc2ccccc2c1C(=O)c1cc(I)c(O)c(I)c1 [NCGC00160408-03]
[1]
  VEGF_ADSC\ECFC Angio Hoechst NucArea IC50/EC50: > 10 µM
[2]
  Basal_Viability ATP DLD-1 IC50/EC50: 0.003 µM
[3]
  Basal_Viability ATP HCT116 IC50/EC50: 0.003 µM
[4]
  GSK3b inh pretreated_Viability ATP HCT116 IC50/EC50: 0.001 µM
[5]
  Basal_Viability ATP HT-29 IC50/EC50: 0.001 µM
[6]
  Basal_Viability ATP Colo 320 IC50/EC50: 0.003 µM
[7]
  Hela CellCycMod PI 2N IC50/EC50: > 10 µM
  Hela CellCycMod PI 4N IC50/EC50: > 10 µM
  Hela CellCycMod PI Cell Number IC50/EC50: > 10 µM
  Hela CellCycMod PI MI IC50/EC50: > 10 µM
  Hela CellCycMod PI S Phase IC50/EC50: > 10 µM
[8]
  Basal_Viability ATP RKO IC50/EC50: 0.003 µM
[9]
  Basal_Viability ATP SNU-C1 IC50/EC50: 0.001 µM
[10]
  Basal_Viability ATP SW480 IC50/EC50: 0.001 µM
[11]
  VEGF_ADSC\ECFC Angio CD31 TubeArea IC50/EC50: 5.8547 µM

## COc1ccccc1N1CCN(CCCCNC(=O)c2ccc(-c3ccc(C(C)=O)cc3)cc2)CC1 [NCGC00025004-04]
[12]; assay number 8, 5 mM glucose
  5mMGluc_INS1E SecretionMod IC50/EC50: > 33.33 µM

## O=C(Nc1ccc(Br)cc1)c1cc(Br)cc(Br)c1O [NCGC00159476-09]
[1]
  IC50/EC50, VEGF_ADSC\ECFC Angio Hoechst NucArea (assay number 3): > 10 µM
[2]; basal
  IC50/EC50, Basal_Viability ATP DLD-1 (assay number 23): 0.001 µM
[3]; basal
  IC50/EC50, Basal_Viability ATP HCT116 (assay number 25): 0.003 µM
[4]; GSK3b inh pretreated
  IC50/EC50, GSK3b inh pretreated_Viability ATP HCT116 (assay number 26): 0.001 µM
[5]; basal
  IC50/EC50, Basal_Viability ATP HT-29 (assay number 28): 0.001 µM
[6]; basal
  IC50/EC50, Basal_Viability ATP Colo 320 (assay number 27): 0.003 µM
[7]; 2N
  IC50/EC50, Hela CellCycMod PI 2N (assay number 14): > 10 µM
[7]; 4N
  IC50/EC50, Hela CellCycMod PI 4N (assay number 16): > 10 µM
[7]; Cell Number
  IC50/EC50, Hela CellCycMod PI Cell Number (assay number 18): > 10 µM
[7]; MI
  IC50/EC50, Hela CellCycMod PI MI (assay number 17): > 10 µM
[7]; S Phase
  IC50/EC50, Hela CellCycMod PI S Phase (assay number 15): > 10 µM
[8]; basal
  IC50/EC50, Basal_Viability ATP RKO (assay number 29): 0.003 µM
[9]; basal
  IC50/EC50, Basal_Viability ATP SNU-C1 (assay number 30): 0.001 µM
[10]; basal
  IC50/EC50, Basal_Viability ATP SW480 (assay number 24): 0.001 µM
[11]
  IC50/EC50, VEGF_ADSC\ECFC Angio CD31 TubeArea (assay number 2): 1.8138 µM

## O=C(CCCN1CCC(O)(c2ccc(Br)cc2)CC1)c1ccc(F)cc1 [NCGC00016692-05]
[12]; assay number 8, 5 mM glucose
  5mMGluc_INS1E SecretionMod IC50/EC50: > 33.33 µM

## O=C(CCN1CCN2CCCC2C1)N1c2ccccc2Sc2ccc(Cl)cc21 (stereo not drawn) [NCGC00164539-02]
[12]; assay number 8, 5 mM glucose
  5mMGluc_INS1E SecretionMod IC50/EC50: 16.7552 µM

## CCCCC(CC)CN=C(N)NC(N)=NCCCCCCN=C(N)NC(N)=NCC(CC)CCCC (stereo not drawn) [NCGC00178352-06]
[1]
  IC50/EC50, VEGF_ADSC\ECFC Angio Hoechst NucArea (assay number 3): > 10 µM
[2]
  IC50/EC50, Basal_Viability ATP DLD-1 (assay number 23): 0.0197 µM
[3]
  IC50/EC50, Basal_Viability ATP HCT116 (assay number 25): 0.7096 µM
[4]
  IC50/EC50, GSK3b inh pretreated_Viability ATP HCT116 (assay number 26): 0.3963 µM
[5]
  IC50/EC50, Basal_Viability ATP HT-29 (assay number 28): 0.0302 µM
[6]
  IC50/EC50, Basal_Viability ATP Colo 320 (assay number 27): 0.0041 µM
[7]
  IC50/EC50, Hela CellCycMod PI 2N (assay number 14): > 10 µM
  IC50/EC50, Hela CellCycMod PI 4N (assay number 16): > 10 µM
  IC50/EC50, Hela CellCycMod PI Cell Number (assay number 18): 0.0186 µM
  IC50/EC50, Hela CellCycMod PI MI (assay number 17): > 10 µM
  IC50/EC50, Hela CellCycMod PI S Phase (assay number 15): > 10 µM
[8]
  IC50/EC50, Basal_Viability ATP RKO (assay number 29): 0.2228 µM
[9]
  IC50/EC50, Basal_Viability ATP SNU-C1 (assay number 30): 0.0941 µM
[10]
  IC50/EC50, Basal_Viability ATP SW480 (assay number 24): 0.3327 µM
[11]
  IC50/EC50, VEGF_ADSC\ECFC Angio CD31 TubeArea (assay number 2): 0.4078 µM

## CCCCOc1cc(C(=O)OCCN(CC)CC)ccc1N [NCGC00016667-04]
[12]; assay number 8, 5 mM glucose
  5mMGluc_INS1E SecretionMod IC50/EC50: 15.5055 µM

## COc1ccc2c(c1OC)C(=O)O[C@@H]2[C@H]1c2cc3c(cc2CCN1C)OCO3 [NCGC00017326-05]
[12]; assay number 8, 5 mM glucose
  5mMGluc_INS1E SecretionMod IC50/EC50: > 33.33 µM

## CN1CCC(N(Cc2cccs2)c2ccccc2)CC1 [NCGC00183847-01]
[12]
  5mMGluc_INS1E SecretionMod IC50/EC50: 20.3958 µM

## Cc1cc(N)c2ccccc2[n+]1CCCCCCCCCC[n+]1c(C)cc(N)c2ccccc21 [NCGC00015339-07]
[1]
  IC50/EC50, VEGF_ADSC\ECFC Angio Hoechst NucArea (assay number 3): > 10 µM
[2]; basal
  IC50/EC50, Basal_Viability ATP DLD-1 (assay number 23): 5.7172 µM
[3]; basal
  IC50/EC50, Basal_Viability ATP HCT116 (assay number 25): > 20 µM
[4]; GSK3b inh pretreated
  IC50/EC50, GSK3b inh pretreated_Viability ATP HCT116 (assay number 26): > 20 µM
[5]; basal
  IC50/EC50, Basal_Viability ATP HT-29 (assay number 28): > 20 µM
[6]; basal
  IC50/EC50, Basal_Viability ATP Colo 320 (assay number 27): 15.8701 µM
[7]; 2N
  IC50/EC50, Hela CellCycMod PI 2N (assay number 14): > 10 µM
[7]; 4N
  IC50/EC50, Hela CellCycMod PI 4N (assay number 16): > 10 µM
[7]; Cell Number
  IC50/EC50, Hela CellCycMod PI Cell Number (assay number 18): > 10 µM
[7]; MI
  IC50/EC50, Hela CellCycMod PI MI (assay number 17): > 10 µM
[7]; S Phase
  IC50/EC50, Hela CellCycMod PI S Phase (assay number 15): > 10 µM
[8]; basal
  IC50/EC50, Basal_Viability ATP RKO (assay number 29): 2.4541 µM
[9]; basal
  IC50/EC50, Basal_Viability ATP SNU-C1 (assay number 30): 1.2926 µM
[10]; basal
  IC50/EC50, Basal_Viability ATP SW480 (assay number 24): 3.8338 µM
[11]
  IC50/EC50, VEGF_ADSC\ECFC Angio CD31 TubeArea (assay number 2): > 10 µM

## CCC(CN)=C(c1ccccc1)c1ccccc1.Cl [NCGC00262942-01]
[12]; assay number 8, 5 mM glucose
  5mMGluc_INS1E SecretionMod IC50/EC50: 10.7785 µM

## O=[N+]([O-])c1ccc(Oc2ccc(N=C=S)cc2)cc1 [NCGC00182049-02]
[1]
  VEGF_ADSC\ECFC Angio Hoechst NucArea IC50/EC50: > 10 µM
[2]; assay number 23, basal
  Basal_Viability ATP DLD-1 IC50/EC50: 2.102 µM
[3]; assay number 25, basal
  Basal_Viability ATP HCT116 IC50/EC50: 2.772 µM
[4]; assay number 26, GSK3b inhibitor pretreated
  GSK3b inh pretreated_Viability ATP HCT116 IC50/EC50: 1.472 µM
[5]; assay number 28, basal
  Basal_Viability ATP HT-29 IC50/EC50: 1.0654 µM
[6]; assay number 27, basal
  Basal_Viability ATP Colo 320 IC50/EC50: 1.465 µM
[7]; assay number 14, 2N
  Hela CellCycMod PI 2N IC50/EC50: > 10 µM
[7]; assay number 15, S phase
  Hela CellCycMod PI S Phase IC50/EC50: > 10 µM
[7]; assay number 16, 4N
  Hela CellCycMod PI 4N IC50/EC50: > 10 µM
[7]; assay number 17, MI
  Hela CellCycMod PI MI IC50/EC50: > 10 µM
[7]; assay number 18, cell number
  Hela CellCycMod PI Cell Number IC50/EC50: > 10 µM
[8]; assay number 29, basal
  Basal_Viability ATP RKO IC50/EC50: 2.341 µM
[9]; assay number 30, basal
  Basal_Viability ATP SNU-C1 IC50/EC50: 4.3298 µM
[10]; assay number 24, basal
  Basal_Viability ATP SW480 IC50/EC50: 1.634 µM
[11]
  VEGF_ADSC\ECFC Angio CD31 TubeArea IC50/EC50: 3.7244 µM

## CC(CCc1ccccc1)NC(C)C(O)c1ccc(O)cc1 (stereo not drawn) [NCGC00015716-09]
[12]; assay number 8, 5 mM glucose
  5mMGluc_INS1E SecretionMod IC50/EC50: 14.4759 µM
